This test deals with T1, recombinant SIR-2.1 (Caenorhabditis elegans, UniProt Q21921).
T1 sequence (Q21921 1-607): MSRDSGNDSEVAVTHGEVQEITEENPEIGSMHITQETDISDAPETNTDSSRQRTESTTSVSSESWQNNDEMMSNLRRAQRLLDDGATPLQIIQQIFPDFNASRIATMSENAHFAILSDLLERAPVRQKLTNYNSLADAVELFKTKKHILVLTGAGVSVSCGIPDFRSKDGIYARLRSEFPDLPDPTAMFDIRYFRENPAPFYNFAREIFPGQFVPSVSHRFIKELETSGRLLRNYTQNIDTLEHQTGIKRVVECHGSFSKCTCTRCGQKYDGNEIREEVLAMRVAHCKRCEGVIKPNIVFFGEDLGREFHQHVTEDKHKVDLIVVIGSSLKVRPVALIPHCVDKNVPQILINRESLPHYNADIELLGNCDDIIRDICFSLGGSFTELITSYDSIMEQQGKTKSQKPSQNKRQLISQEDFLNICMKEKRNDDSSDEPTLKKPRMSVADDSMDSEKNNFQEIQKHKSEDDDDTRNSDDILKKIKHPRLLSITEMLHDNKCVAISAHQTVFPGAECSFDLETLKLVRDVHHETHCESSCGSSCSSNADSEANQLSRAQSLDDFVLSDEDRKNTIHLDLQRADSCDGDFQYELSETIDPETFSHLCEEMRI
The test can be described thus: SIR-2.1 deacetylation assay (Fluor de Lys).

The structures appear in SMILES notation.

Take `Oc1ccc(/C=C/c2cc(O)cc(O)c2)cc1` [Resveratrol, 3,5,4′-Trihydroxy-trans-stilbene]: the “effect on Km of SIR-2.1 for NAD+” value (100 μM resveratrol, 10 μM Fluor de Lys) was “lowered”. For the same molecule, the “stimulation of deacetylation, SIR-2.1 (up to)” value (dose-dependent, 200 μM NAD+, 10 μM FdL) is recorded as “up to 2.5 fold”.

The values are drawn from US7544497B2, “Compositions for manipulating the lifespan and stress response of cells and organisms” (President and Fellows of Harvard College, priority 2003, dated 2009).
